Data published in article PMC5877551, “Structure-Activity Relationships of Thiazolyl Resorcinols, Potent and Selective Inhibitors of Human Tyrosinase” (International Journal of Molecular Sciences, 2018).

Legend:
human tyrosinase (hTyr) [1] = target: T1, human tyrosinase (hTyr) (Homo sapiens, UniProt P14679); assay: L-Dopa oxidase activity of hTyr, dose-response profiles (MBTH assay); assay type: biochemical; set-up: A truncated, His-tagged form of hTyr (hTyr-DHis) was expressed in HEK 293 cells; His tag; made in house; host or cells: HEK 293 cells; settings: for EC50: dopa oxidase activity of hTyr, 1 mM L-Dopa, phosphate buffer pH 7.0, 37 °C, values above 3 mM given as >3000; for inhibition of hTyr, result in words: comparison of EC50 values; for factor by which inhibitory activity is impaired when thiazole is replaced by another ring: versus the corresponding thiazole compound (W547, W548)
T1 sequence (P14679 19-476 limits assumed): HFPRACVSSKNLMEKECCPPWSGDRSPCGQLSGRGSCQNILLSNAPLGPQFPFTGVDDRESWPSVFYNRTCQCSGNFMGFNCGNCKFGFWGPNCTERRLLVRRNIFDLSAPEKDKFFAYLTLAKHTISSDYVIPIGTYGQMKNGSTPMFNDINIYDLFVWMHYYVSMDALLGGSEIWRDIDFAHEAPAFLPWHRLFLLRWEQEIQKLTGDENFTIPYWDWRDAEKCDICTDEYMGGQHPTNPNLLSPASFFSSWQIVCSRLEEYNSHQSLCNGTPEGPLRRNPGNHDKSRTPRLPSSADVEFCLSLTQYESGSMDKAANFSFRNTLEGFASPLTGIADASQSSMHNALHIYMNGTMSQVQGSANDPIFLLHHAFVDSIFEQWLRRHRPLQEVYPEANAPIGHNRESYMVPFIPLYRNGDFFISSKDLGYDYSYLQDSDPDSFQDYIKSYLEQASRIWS
Protocol: A truncated, His-tagged form of hTyr (hTyr-DHis) was expressed in HEK 293 cells and purified by metal affinity chromatography on Ni^2+-Sepharose as described by Cordes et al..
The L-Dopa oxidase activity of hTyr was assayed by a modification of the method of Winder and Harris. In this assay, the reaction product, L-dopaquinone, is trapped by MBTH (3-methyl-2-benzothiazoline hydrazone) to yield a stable pink dye that can be quantified at 490 nm. Reaction mixtures in 100 mM phosphate buffer, pH 7.0, were set up in microtiter plates together with appropriate blanks to account for nonenzymatic oxidation of substrate and product. After thermal equilibration at 37 °C for 10 min, the reactions were started by adding enzyme and monitored for 10–20 min at 490 nm. Absorption values were read at 15 s intervals and digitally stored for later analysis. Dose-response curves were obtained by testing various concentrations of each inhibitor in triplicate at a fixed substrate (L-Dopa) concentration of 1 mM.

human tyrosinase (hTyr) [2] = target: T1, human tyrosinase (hTyr); settings: in vitro; cited from earlier work

EC50 (human tyrosinase (hTyr) [1]) [µM] | Compound | other results
93 ± 21 | CCCCCCc1ccc(O)cc1O [W072, 4-hexylresorcinol, reference compound] | –
19 ± 1 | Oc1ccc(-c2csc(Nc3ncccn3)n2)cc1 [W452] | –
51 ± 2 | Nc1nc(-c2ccc(O)cc2O)cs1 [W495, 4-(2-amino-1,3-thiazol-4-yl) resorcinol] | –
140 ± 6 | Oc1ccc(-c2csc(NCCc3ccccc3)n2)c(O)c1 [W496] | inhibition of hTyr, result in words (human tyrosinase (hTyr) [1]): markedly impair inhibition
25 ± 1 | CC(C)(C)Nc1nc(-c2ccc(O)cc2O)cs1 [W534] | –
160 ± 2 | Cc1cc(C)cc(Nc2nc(-c3ccc(O)cc3O)cs2)c1 [W537] | inhibition of hTyr, result in words (human tyrosinase (hTyr) [1]): markedly impair inhibition
5.6 ± 1.4 | CCCNc1nc(-c2ccc(O)cc2O)cs1 [W538] | –
> 3000 | Oc1ccccc1-c1csc(Nc2ncccn2)n1 [W539] | –
4.6 ± 0.2 | O=C(Nc1nc(-c2ccc(O)cc2O)cs1)C1CCCCC1 [W548] | –
> 3000 | Oc1cccc(-c2csc(Nc3ncccn3)n2)c1O [W568] | –
3.5 ± 0.5 | CCCC(=O)Nc1nc(-c2ccc(O)cc2O)cs1 [W577] | –
> 3000 | Cc1sc(NC(=O)C2CCCCC2)nc1-c1ccc(O)cc1O [W625] | inhibition of hTyr, result in words (human tyrosinase (hTyr) [1]): abolished inhibition altogether
3.2 ± 0.2 | CC(C)(O)c1ccc(C(=O)Nc2nc(-c3ccc(O)cc3O)cs2)cc1 [W680] | –
60 ± 2 | CCCCCCNc1nc(-c2ccc(O)cc2O)cs1 [W688] | –
6.9 ± 0.2 | OCCCCCCNc1nc(-c2ccc(O)cc2O)cs1 [W692] | –
5.7 ± 0.2 | OCc1ccc(Nc2nc(-c3ccc(O)cc3O)cs2)cc1 [W693] | –
16 ± 1 | Oc1ccc(-c2csc(NC3CCCCC3)n2)c(O)c1 [W694] | –
> 3000 | O=C(NC1CCCCC1)c1csc(-c2ccc(O)cc2O)n1 [W701] | inhibition of hTyr, result in words (human tyrosinase (hTyr) [1]): abolishes activity

Second part, the molecule before the results:

Compound | EC50 (human tyrosinase (hTyr) [1]) [µM] | other results
CCCCc1ccc(O)cc1O [W039, 4-butylresorcinol, reference compound] | 21 ± 4 | –
Oc1cccc(O)c1 [W089, resorcinol] | > 3000 | –
Oc1ccc(-c2csc(Nc3ncccn3)n2)c(O)c1 [W311] | 3.2 ± 0.1 | inhibition of hTyr, result in words (human tyrosinase (hTyr) [1]): mediates efficient inhibition
CNc1nc(-c2ccc(O)cc2O)cs1 [W366] | 33 ± 1 | –
Oc1ccc(-c2csc(Nc3ccccc3)n2)c(O)c1 [W367] | 10 ± 1 | –
CCC(=O)Nc1nc(-c2ccc(O)cc2F)cs1 [W480] | > 3000 | –
O=C(Nc1nc(-c2ccc(O)cc2O)cs1)c1ccccc1 [W498] | 2.5 ± 0.1 | –
O=C(O)c1ccc(Nc2nc(-c3ccc(O)cc3O)cs2)cc1 [W529] | 2.6 ± 0.1 | –
CC(C)Nc1nc(-c2ccc(O)cc2O)cs1 [W533] | 6.2 ± 0.2 | –
Oc1ccc(Nc2nc(-c3ccc(O)cc3O)cs2)cc1 [W542] | 9.8 ± 0.3 | –
CC(=O)Nc1nc(-c2ccc(O)cc2O)cs1 [W547] | 3.2 ± 0.6 | –
O=C(O)c1ccc(Nc2nc(-c3ccc(O)cc3O)cs2)cc1O [W570] | 3.5 ± 0.1 | –
CN(C(=O)C1CCCCC1)c1nc(-c2ccc(O)cc2O)cs1 [W605] | 1400 ± 160 | inhibition of hTyr, result in words (human tyrosinase (hTyr) [1]): strongly
O=C(NC1CCCCC1)c1nc(-c2ccc(O)cc2O)cs1 [W607] | 56 ± 3 | inhibition of hTyr, result in words (human tyrosinase (hTyr) [1]): only moderately increases EC50
O=C(Nc1nc(-c2ccc(O)cc2O)cs1)c1ccc(CO)cc1 [W619] | 1.6 ± 0.4 | –
CCCNc1nc(-c2cc(O)cc(O)c2)cs1 [W624] | > 3000 | –
CC(C)C(=O)Nc1nc(-c2ccc(O)cc2O)cs1 [W630, Thiamidol] | 1.1 ± 0.1 | –
O=C(Nc1cccc(-c2ccc(O)cc2O)c1)C1CCCCC1 [W632] | > 3000 | factor by which inhibitory activity is impaired when thiazole is replaced by another ring (human tyrosinase (hTyr) [1]): at least 200
CC(=O)Nc1nc(-c2ccc(O)cc2O)c[nH]1 [W633] | 750 ± 60 | factor by which inhibitory activity is impaired when thiazole is replaced by another ring (human tyrosinase (hTyr) [1]): at least 200
CCCCc1ccc(O)c(C)c1O [W639] | 220 ± 10 | inhibition of hTyr, result in words (human tyrosinase (hTyr) [1]): markedly impaired inhibition
CN(c1nc(-c2ccc(O)cc2O)cs1)C1CCCCC1 [W646] | 40 ± 2 | inhibition of hTyr, result in words (human tyrosinase (hTyr) [1]): only moderately reduced inhibitory activity
CC(C)(C)c1ccc(C(=O)Nc2nc(-c3ccc(O)cc3O)cs2)cc1 [W669] | 81 ± 5 | inhibition of hTyr, result in words (human tyrosinase (hTyr) [1]): markedly impair inhibition
CCCC(=O)Nc1nc(-c2cc(CCC)c(O)cc2O)cs1 [W681] | > 3000 | inhibition of hTyr, result in words (human tyrosinase (hTyr) [1]): abolished inhibition altogether
CC(C)(C)C(=O)Nc1nc(-c2ccc(O)cc2O)cs1 [W687] | 1.4 ± 0.1 | –
CCCCCCC(=O)Nc1nc(-c2ccc(O)cc2O)cs1 [W695] | 15 ± 1 | –
O=C(Cc1ccc(CO)cc1)Nc1nc(-c2ccc(O)cc2O)cs1 [W696] | 6.5 ± 0.2 | –
OCCc1ccc(O)cc1O [W785] | 560 ± 90 | inhibition of hTyr, result in words (human tyrosinase (hTyr) [1]): markedly impaired inhibition
OC[C@H]1O[C@@H](Oc2ccc(O)cc2)[C@H](O)[C@@H](O)[C@@H]1O [arbutin] | – | hTyr inhibition compared with thiazolyl resorcinols, in words (human tyrosinase (hTyr) [2]): clearly inferior to thiazolyl resorcinols
Oc1ccc(O)cc1 [hydroquinone] | – | hTyr inhibition compared with thiazolyl resorcinols, in words (human tyrosinase (hTyr) [2]): clearly inferior to thiazolyl resorcinols
